The target of one data set is Nav1.8 (Homo sapiens, UniProt Q9Y5Y9). The experiment in a line: Selectivity for other ion channels: Nav1.8. It is filed as cell-based.
Data set [1] is described as follows: Metabolism stability test in liver microsomes. The format is in vitro ADME. To be noted: human liver microsomes. The method, then: Buffer A: 1 L solution of 100 mM potassium dihydrogen phosphate containing 1 mM EDTA (Sigma, V900157-100G) was prepared.
Buffer B: 1 L solution of 100 mM dipotassium hydrogen phosphate containing 1 mM EDTA was prepared.
Buffer C: 700 mL of buffer B was taken out and titrated with buffer A to pH 7.4.
2.1 10 μl of 10 mM compound to be tested and 10 μl of 10 mM ketanserin were taken out and 190 μl of pure acetonitrile was added to each of them to prepare 500 μM compound to be tested and ketanserin, respectively.
2.2 20 μl (20 mg/mL) of liver microsomes (Corning Lot. NO. 4133007) stock solution was added to 513.4 μl of buffer C on wet ice. 0.75 mg/mL liver microsomal solution was obtained.
2.3 1.5 μl of each of the above-mentioned compound to be tested and ketanserin solution was added to 498.5 μl of liver microsomal solution (0.7 5 mg/mL) respectively on wet ice. 1.5 μM mixed solution of compound to be tested and 1.5 μM mixed solution of ketanserin were obtained.
2.4 At the time points 0, 5, 15, 30, 45, and 60 min, 30 μl of the mixed solution of compound to be tested and 30 μl of the mixed solution of ketanserin were dispensed into the reaction plate on wet ice, respectively.
2.5 5 mg reduced coenzyme II (Roche, 10621706001) was weighed and dissolved in 1 mL of buffer C. 6 mM reduced coenzyme II solution was obtained. The reduced coenzyme II solution was dispensed into the reaction plate.
2.6 Imipramine was dissolved to give a 10 mM solution. 10 μl imipramine solution was added to 100 mL of blank acetonitrile to generate the internal reference.
2.7 At 0 min, 135 μL of iced acetonitrile (Merck (Lot. 1778229518)) containing the internal reference was added to each well and then 15 μL of buffer C was added.
2.8 The reaction plate was placed into a 37° C. water bath incubator for 5 min. In the reaction plate, 15 μL of reduced coenzyme II solution was added to each well to initiate the reaction, and the time keeping was started. At the time points of 5, 15, 30, 45, and 60 min, 135 μL of iced acetonitrile containing the internal reference was added to each well to terminate the reaction.
2.9 The reaction plate was sealed with an aluminum film, placed on a vibration mixer and shaken at 500 rpm for 5 min. The plate was then centrifuged in a centrifuge at 3750 rp for 15 min.
2.10 The sample was diluted with pure water in accordance with the ratio of 1:1 and detected by LC/MS. […]
Wherein, the K value and the proportional factor were calculated by those skilled in the art according to the methods described in the prior art and contained in the instructions of the liver microsome product.
A general note: Liver microsomes are vesicles of endoplasmic reticulum, rich in cytochrome P450 enzymes.

In a further data set the target is Nav1.2 (Homo sapiens, UniProt Q99250). As to the kind of experiment: Selectivity for other ion channels: Nav1.2. The format is cell-based.
Another data set deals with hNav1.7 (Homo sapiens, UniProt Q15858). The experiment in a line: Manual patch clamp experiment of hNav1.7 channel (CHO-hNav1.7 stable cell line). It is filed as cell-based. The text has this: Patch voltage clamp electrophysiology allows for the direct measurement and quantification of current block of voltage-gated sodium channels (NaV's), and allows the determination of the time and voltage-dependence of block which has been interpreted as differential binding to the resting, open and inactivated states of the sodium channel to reflect the compound's inhibitory or activating effects (Hille, B., Journal of General Physiology (1977), 69: 497-515).
hNav1.7, sequence (Q15858 whole entry): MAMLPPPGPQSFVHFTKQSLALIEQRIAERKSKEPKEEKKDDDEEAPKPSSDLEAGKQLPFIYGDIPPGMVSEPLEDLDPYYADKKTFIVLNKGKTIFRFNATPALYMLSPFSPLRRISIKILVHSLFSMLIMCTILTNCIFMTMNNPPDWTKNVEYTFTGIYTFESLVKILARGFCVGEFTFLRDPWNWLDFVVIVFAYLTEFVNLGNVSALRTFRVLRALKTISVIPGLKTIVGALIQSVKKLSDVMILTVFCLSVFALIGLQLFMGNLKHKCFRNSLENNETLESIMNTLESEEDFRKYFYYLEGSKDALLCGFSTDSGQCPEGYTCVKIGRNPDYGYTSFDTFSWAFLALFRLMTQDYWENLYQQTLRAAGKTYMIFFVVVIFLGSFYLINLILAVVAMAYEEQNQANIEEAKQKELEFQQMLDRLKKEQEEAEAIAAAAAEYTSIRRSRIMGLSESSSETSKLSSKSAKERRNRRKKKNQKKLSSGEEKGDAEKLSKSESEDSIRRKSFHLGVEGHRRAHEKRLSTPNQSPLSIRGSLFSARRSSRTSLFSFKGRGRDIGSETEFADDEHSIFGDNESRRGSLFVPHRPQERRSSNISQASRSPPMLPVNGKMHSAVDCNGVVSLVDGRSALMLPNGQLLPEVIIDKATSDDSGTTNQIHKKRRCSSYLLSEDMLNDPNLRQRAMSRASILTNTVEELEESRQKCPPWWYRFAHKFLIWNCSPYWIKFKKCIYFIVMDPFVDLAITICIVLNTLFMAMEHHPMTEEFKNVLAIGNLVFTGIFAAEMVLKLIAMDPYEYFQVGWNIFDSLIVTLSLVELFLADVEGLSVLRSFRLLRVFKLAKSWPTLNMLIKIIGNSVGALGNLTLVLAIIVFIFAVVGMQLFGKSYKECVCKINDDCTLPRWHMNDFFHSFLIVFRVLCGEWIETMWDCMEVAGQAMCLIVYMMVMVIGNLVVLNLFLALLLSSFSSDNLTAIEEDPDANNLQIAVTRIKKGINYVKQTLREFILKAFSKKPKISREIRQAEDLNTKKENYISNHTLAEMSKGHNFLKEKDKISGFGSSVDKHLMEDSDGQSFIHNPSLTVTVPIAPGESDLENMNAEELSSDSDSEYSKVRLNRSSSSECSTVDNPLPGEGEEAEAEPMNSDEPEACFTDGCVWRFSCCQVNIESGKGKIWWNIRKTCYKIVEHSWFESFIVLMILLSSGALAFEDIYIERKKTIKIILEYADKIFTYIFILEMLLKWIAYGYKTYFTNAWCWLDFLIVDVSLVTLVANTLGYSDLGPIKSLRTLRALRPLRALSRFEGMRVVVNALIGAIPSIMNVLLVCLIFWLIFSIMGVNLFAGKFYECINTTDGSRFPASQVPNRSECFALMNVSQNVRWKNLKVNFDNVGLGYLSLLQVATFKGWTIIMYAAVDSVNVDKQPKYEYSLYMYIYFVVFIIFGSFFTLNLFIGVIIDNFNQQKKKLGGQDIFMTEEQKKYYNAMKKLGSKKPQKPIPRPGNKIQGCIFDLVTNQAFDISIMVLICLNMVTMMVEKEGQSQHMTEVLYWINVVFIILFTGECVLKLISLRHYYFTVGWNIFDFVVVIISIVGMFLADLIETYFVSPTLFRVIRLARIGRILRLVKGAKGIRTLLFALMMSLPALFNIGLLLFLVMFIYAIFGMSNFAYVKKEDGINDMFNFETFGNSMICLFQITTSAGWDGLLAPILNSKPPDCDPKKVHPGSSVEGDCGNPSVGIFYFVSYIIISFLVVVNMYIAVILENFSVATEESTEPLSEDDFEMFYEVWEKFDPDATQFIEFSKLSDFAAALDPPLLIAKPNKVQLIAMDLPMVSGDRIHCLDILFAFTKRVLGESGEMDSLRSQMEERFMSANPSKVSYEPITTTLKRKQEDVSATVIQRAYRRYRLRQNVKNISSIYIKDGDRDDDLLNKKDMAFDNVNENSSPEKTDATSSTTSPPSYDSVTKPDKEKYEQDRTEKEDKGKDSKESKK
Representative compounds of the present disclosure were performed using a manual patch clamp experiment and the purpose of this study was to test the effect of compounds on this ion channel current on a stable cell line transfected with a specific ion channel using a manual patch clamp method, the used stable cell lines CHO-hNav1.7 and HEK-hNav1.5 were from Genionics and WuXi Apptec (Shanghai) respectively.
Manual patch clamp experimental program is as follows:
(1) Preparation of solutions and compounds: The whole cell patch clamp technique was used to record hNav1.7 and hNav1.5 currents. In the experiment, the composition of extracellular fluid (mM): HEPES: 5, NaCl: 40, KCl: CaCl2:1, MgCl2:1, CdCl2:0.1, TEA-Cl: 20. The pH was adjusted to 7.3 with NaOH and the osmotic pressure was adjusted to 310-320 mOsm with sucrose, filtered and stored at 4° C. The composition of the intracellular fluid (mM): HEPES: 10, NaCl: 10, CsOH: 5, CsF: 140, EGTA: 1. The pH was adjusted to 7.3 with CsOH and the osmotic pressure was adjusted to 280-290 mOsm with sucrose, filtered and stored at −20° C.
The positive control and the test compound were firstly dissolved in 100% DMSO (Sigma-Aldrich, D2650), configured as stock solution at a concentration (100 nM, 1000 nM).) The above stock solution was serially diluted with DMSO prior to the experiment, the solution was further diluted with extracellular solution to obtain the desired concentration of the test solution.
(2) Manual Patch Clamp Experiment: The cell suspension was added to a 35 mm petri dish and placed on an inverted microscope stage, the cells were perfused with an extracellular fluid and the flow rate was 1-2 mL/min after cell adherence. The glass microelectrode was pulled in two steps by a microelectrode puller with an inlet water resistance of 2-5 MΩ. A/D-D/A digital-analog conversion was performed by Digidata 1440 (Molecular Devices) and pCLAMP software (version 10.2, Molecular Devices) for stimulation and signal acquisition; the signal was amplified by patch clamp amplifier (Multiclamp 700B, Molecular Devices), filtering is 4 KHz.
Two different voltage stimulation procedures were used in the hNav1.7 and hNav1.5 manual patch clamp experiments.
One is the inactivation stimulation program, the clamp potential is set at V1/2 of the corresponding channel, ie about 50% of the channels are inactivated, then the voltage is applied to −120 mV for 50 ms, then depolarized to −10 mV for 20 ms leading to sodium current, and finally back to the clamp potential. This stimulation program can also be called channel state-dependent voltage stimulation program.
The other is the non-inactivation stimulation program, the clamp potential is maintained at −120 mV, voltage stimulation is given to −10 mV for 20 ms leading to sodium current, and finally back to the clamp potential. That is all channels have not experienced inactivation status, but activate directly from the resting state under the conditions of the stimulation program.
The time intervals of these two voltage stimulation program were 10 s. The inhibitory effect of the compound was calculated by the change of the current before and after dosing, the IC50 value was fitted by the Hill equation. […] The results are shown in Table 33 and Table 34, respectively.
Background: In patch-clamp work, channel activity is measured electrically.

The IC50 is the concentration that inhibits the measured activity by half. As usually defined, the inhibition is how much of the control response was suppressed.

Nav1.8, sequence (Q9Y5Y9 whole entry): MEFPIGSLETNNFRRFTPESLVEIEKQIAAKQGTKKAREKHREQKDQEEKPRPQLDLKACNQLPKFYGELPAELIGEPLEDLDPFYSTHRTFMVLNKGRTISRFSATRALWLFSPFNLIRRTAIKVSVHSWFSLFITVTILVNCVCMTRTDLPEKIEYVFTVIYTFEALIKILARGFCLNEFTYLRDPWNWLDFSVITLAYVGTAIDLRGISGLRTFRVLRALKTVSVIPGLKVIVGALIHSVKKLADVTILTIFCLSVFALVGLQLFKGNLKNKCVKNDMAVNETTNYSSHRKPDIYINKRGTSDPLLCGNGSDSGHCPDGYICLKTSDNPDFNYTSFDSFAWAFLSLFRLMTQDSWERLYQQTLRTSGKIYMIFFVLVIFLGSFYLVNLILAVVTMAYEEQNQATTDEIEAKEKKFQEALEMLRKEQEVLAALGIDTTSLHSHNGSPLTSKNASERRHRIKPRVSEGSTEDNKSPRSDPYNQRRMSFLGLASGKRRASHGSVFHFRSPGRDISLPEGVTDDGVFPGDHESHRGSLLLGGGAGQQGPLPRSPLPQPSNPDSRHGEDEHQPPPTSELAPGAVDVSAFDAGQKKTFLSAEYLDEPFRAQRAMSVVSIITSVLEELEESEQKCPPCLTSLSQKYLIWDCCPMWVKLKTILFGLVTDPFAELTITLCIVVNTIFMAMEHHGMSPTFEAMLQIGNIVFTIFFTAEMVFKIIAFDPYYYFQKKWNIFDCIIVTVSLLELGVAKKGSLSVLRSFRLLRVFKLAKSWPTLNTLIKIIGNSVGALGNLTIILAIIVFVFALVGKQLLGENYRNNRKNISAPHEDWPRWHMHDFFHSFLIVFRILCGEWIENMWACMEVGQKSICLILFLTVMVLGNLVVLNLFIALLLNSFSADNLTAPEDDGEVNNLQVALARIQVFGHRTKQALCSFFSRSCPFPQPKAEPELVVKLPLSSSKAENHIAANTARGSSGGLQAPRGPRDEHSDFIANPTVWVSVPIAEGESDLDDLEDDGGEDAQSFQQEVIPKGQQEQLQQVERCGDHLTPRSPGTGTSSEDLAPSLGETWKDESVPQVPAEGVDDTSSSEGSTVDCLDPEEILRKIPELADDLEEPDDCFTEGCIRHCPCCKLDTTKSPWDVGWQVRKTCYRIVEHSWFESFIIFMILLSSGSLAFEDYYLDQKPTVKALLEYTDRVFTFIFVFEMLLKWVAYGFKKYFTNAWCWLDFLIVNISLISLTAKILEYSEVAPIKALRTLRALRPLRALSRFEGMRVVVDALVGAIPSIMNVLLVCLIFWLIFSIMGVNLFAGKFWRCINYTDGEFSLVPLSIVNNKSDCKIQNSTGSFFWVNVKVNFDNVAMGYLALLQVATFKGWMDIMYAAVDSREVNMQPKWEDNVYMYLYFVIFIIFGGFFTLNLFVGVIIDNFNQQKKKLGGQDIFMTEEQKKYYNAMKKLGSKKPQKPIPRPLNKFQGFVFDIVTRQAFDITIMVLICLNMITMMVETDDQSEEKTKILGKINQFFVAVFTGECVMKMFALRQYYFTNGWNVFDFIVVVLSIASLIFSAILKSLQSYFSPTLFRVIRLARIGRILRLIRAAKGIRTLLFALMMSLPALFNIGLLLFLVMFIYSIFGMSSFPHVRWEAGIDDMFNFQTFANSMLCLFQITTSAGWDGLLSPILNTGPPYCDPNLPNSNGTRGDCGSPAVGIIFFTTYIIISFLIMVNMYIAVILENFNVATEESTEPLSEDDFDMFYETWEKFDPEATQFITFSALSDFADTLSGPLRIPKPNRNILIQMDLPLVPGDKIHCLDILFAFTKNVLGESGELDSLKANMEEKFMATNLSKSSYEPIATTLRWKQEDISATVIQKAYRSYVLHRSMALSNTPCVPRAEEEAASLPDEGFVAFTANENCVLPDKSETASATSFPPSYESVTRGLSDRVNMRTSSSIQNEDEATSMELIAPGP

As for `Cc1cc(N2CCN(Cc3cc(F)c(C(=O)NS(=O)(=O)C4CC4)cc3Cl)CC2)ccc1Cl` [the free base of formula X compound, 5-chloro-4-((4-(4-chloro-3-methylphenyl)piperazin-1-yl)methyl)-N-(cyclopropylsulfonyl)-2-fluorobenzamide], the half-inhibitory concentration (IC50) on Nav1.8 is 18900 nM; at Nav1.2 it was 9600 nM. Further, in data set [1], the “Clearance ratio” value is on record as 20.12 mL/min/kg. For the same compound, the “metabolic stability” value in data set [1] is “good metabolic stability”. In addition, the “inhibitory activity against Nav1.7” value on hNav1.7 was “higher inhibitory activity”. In addition, at hNav1.7 (read-out: Inhibition of Nav1.7, 100 nM(%)), the inhibition at 0.1 µM stood at 86.9%. Further, the inhibition at 1 µM on hNav1.7 (read-out: Inhibition of Nav1.7, 1000 nM(%)) was 97.7%.

The record behind these values is patent US10947202B2, “Sodium ion channel inhibitors and pharmaceutically acceptable salts and polymorphs thereof and uses thereof” (SHANGHAI HAIYAN PHARMACEUTICAL TECHNOLOGY CO., LTD., priority 2017, dated 2021).
